Structures can show the parent of a compound that is named as a salt. Non-standard residues stand in square brackets, D forms with d. Residues, ends and D or L forms follow the SMILES beside them. *: point of attachment. pNA = O=[N+]([O-])c1ccc(N*)cc1; Chg = N[C@H](C(=O)O)C1CCCCC1; Cbz = O=C(OCc1ccccc1)*; Bz = O=C(c1ccccc1)*
Columns and labels:
Type in all cases: biochemical
human plasmin = assay: Enzyme quantity splitting substrate I at 1 μmole pNA per minute (Table II), plasmin; details: 37° C., pH 8.4, ionic strength 0.3, substrate concentration 10^-4 mole
Experimental: CU is the casein unit which is measured on casein under standard conditions.
(§1) In the first column of Table II are listed the quantities of the various enzymes which split substrate I at a temperature of 37° C., a pH of 8.4, an ionic strength of 0.3 and a substrate concentration of 10^-4 mole with a velocity of 1 μmole per minute. In the second column the corresponding enzyme quantity, expressed in other enzyme units, is indicated.

urokinase [1] = target: T1, urokinase (Homo sapiens, UniProt P00749); assay: Kinetic constants Km and vmax of substrate hydrolysis by urokinase (Lineweaver-Burk); details: per CTA unit, pH 8.4, ionic strength 0.30, 37° C.
T1 construct: also urine of healthy test persons
Experimental: The enzyme and the substrate are mixed in a buffer solution, and the hydrolysis reaction is followed for 2 to 30 minutes. The concentration of substate [S] is varied, whereas the enzyme concentration is kept constant. If the extinction (OD=optical density) is plotted in a co-ordinate system as a function of time, a curve is obtained the tangent of which at time zero corresponds to the ideal course of the hydrolysis. By means of this tangent the initial rate of the hydrolysis can be determined.
If 1/v is plotted against (1/[S]), a Lineweaver-Burk diagram (cf. "Kurzes Lehrbuch der Biochemie" by P. KARLSON, Georg Thieme-Verlag, Stuttgart, 1967, p. 70) is obtained from which vmax and Km can be determined graphically.
For the determination of the kinetic constants Km and vmax listed in Table I aqueous dilution series of the substrates with concentrations from 0.1 to 2 μmoles/ml were used. […] The value of the quantity of p-nitroaniline formed per minute is a measure for the rate of hydrolysis at a given substrate concentration. […] The kinetic constants Km and vmax were determined from the points of intersection of the curves with the abscissa and the ordinate.

bovine trypsin [2] = target: T2, bovine trypsin (Bos taurus, UniProt P00760); assay: Activity of bovine trypsin at constant substrate and enzyme concentrations (Table IV); details: substrate concentration 2 × 10^-4 M; pH 8.4, ionic strength 0.30, 37° C., 405 nm
T2 sequence (P00760 24-246): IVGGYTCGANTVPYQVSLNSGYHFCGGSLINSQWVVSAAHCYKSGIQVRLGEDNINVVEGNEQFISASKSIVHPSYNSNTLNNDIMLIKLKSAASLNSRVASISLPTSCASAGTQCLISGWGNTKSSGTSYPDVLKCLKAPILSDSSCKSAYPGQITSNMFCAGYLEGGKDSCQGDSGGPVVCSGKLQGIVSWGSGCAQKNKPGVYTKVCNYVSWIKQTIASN
Experimental: The results listed in Table IV were obtained under the following experimental conditions: In a measuring vessel 1.7 ml of tris-imidazole buffer having a pH of 8.4 and an ionic strength of 0.30 were mixed at 37° C. with 0.1 ml of an aqueous trypsin solution having a concentration of 2 NF units of trypsin per ml. To the mixture 0.2 ml of a 2×10^-3 molar solution of the substrate to be tested was added. Thereafter, the quantity of p-nitroaniline released from the substrate by the action of the trypsin was determined by measuring the change in the optical density Δ OD per minute at a wave length of 405 nm.

bovine trypsin [3] = target: T2, bovine trypsin; assay: Enzyme quantity splitting substrate I at 1 μmole pNA per minute (Table II), trypsin; details: 37° C., pH 8.4, ionic strength 0.3, substrate concentration 10^-4 mole
Experimental: NF is the trypsin unit, i.e. that quantity of enzyme which causes a change in the absorption Δ OD of 0.003 per minute, measured on benzoyl-L-arginine ethyl ester under standard conditions (cf. "The National Formulary XII", edited by "The American Pharmaceutical Association", Washington, D.C., 1965, pages 417-418).
as §1

urine kallikrein = assay: Enzyme quantity splitting substrate I at 1 μmole pNA per minute (Table II), urine kallikrein
Experimental: BAEE (Benzoyl-L-arginine ethyl ester)--1 BAEE unit of urine kallikrein is that quantity of enzyme which hydrolyzes 1 μmole of benzoyl-L-arginine ethyl ester per minute under standard conditions.
as §1

urokinase [4] = target: T1, urokinase; assay: Determination of urokinase concentration with substrate I (ΔOD versus urokinase quantity); details: ΔOD within 10 minutes
Experimental: In the appended drawing the sole figure represents a graph in which the change in the optical density Δ OD caused by the hydrolytic action of various quantities of urokinase on substrate I within 10 minutes is plotted as a function of the urokinase quantity in a co-ordinate system. From this graph it can be seen that urokinase concentrations can be determined accurately in the range of 1 to 10 CTA/ml. In the determination of the urokinase content in the urine of 14 healthy test persons values of about 8 CTA units per ml of urine were found.

urokinase [5] = target: T1, urokinase; assay: Enzyme quantity splitting substrate I at 1 μmole pNA per minute (Table II), urokinase; details: 37° C., pH 8.4, ionic strength 0.3, substrate concentration 10^-4 mole
Experimental: as §1

human thrombin = assay: Enzyme quantity splitting substrate I at 1 μmole pNA per minute (Table II), thrombin
Experimental: NIH is a unit which was standardized by the "US National Institute of Health".
as §1

trypsin = target: T3, trypsin (Bos taurus, UniProt P00760); assay: Determination of trypsin in duodenal juice with substrate; details: per ml of test sample; pH 8.4, ionic strength 0.30, 37° C., 405 nm
T3 construct: b360 concerns trypsin in duodenal juice
T3 sequence (P00760 24-246): T2 sequence (P00760 24-246)
Experimental: The determination of trypsin in duodenal juice can be carried out for instance as follows: 1.79 ml of tris-imidazole buffer having a pH of 8.4 and an ionic strength of 0.30 are mixed with 0.01 ml of duodenal juice at 37° C. in a measuring vessel. Thereafter, the mixture is rapidly mixed with 0.2 ml of a 2×10^-3 molar solution of a substrate of this invention. The quantity of p-nitroaniline released from the substrate by the action of trypsin is determined by measuring the change in the optical density Δ OD per minute at a wave length of 405 nm. The quantity of p-nitroaniline released per minute or the corresponding change in the optical density is proportional to the trypsin activity. When using the substrate prepared according to Example 10, i.e. N^α -Cbo-C.cyclohexylglycyl-Gly-Arg-pNA.HCl, trypsin can be determined for instance at concentrations as low as 0.01 NF unit per ml of test sample.

[6] = 37° C., pH 8.4, ionic strength 0.3, substrate concentration 10^-4 mole

Row | SMILES | enzyme quantity releasing 1 μmole of pNA per minute from substrate I, in corresponding other units (human plasmin) | Vmax (urokinase [1]) | Quantity in nanomoles of p-nitroaniline enzymatically released from the substrate by 1 NF unit of trypsin in 1 minute (bovine trypsin [2]) | enzyme quantity releasing 1 μmole of pNA per minute from substrate I, in corresponding other units (bovine trypsin [3]) | enzyme quantity releasing 1 μmole of pNA per minute from substrate I, in corresponding other units (urine kallikrein; [6]) | splitting by kallikrein present in urine (in words) (urine kallikrein; conclusion from Table II) | range of urokinase concentrations that can be determined accurately (urokinase [4]) | enzyme quantity releasing 1 μmole of pNA per minute from substrate I, in corresponding other units (urokinase [5]) | enzyme quantity releasing 1 μmole of pNA per minute from substrate I, in corresponding other units (human thrombin; [6]) | splitting by thrombin (in words) (human thrombin; conclusion from Table II) | lowest trypsin concentration that can be determined (trypsin)
1 | CC(C)[C@H](NC(=O)c1ccccc1)C(=O)NCC(=O)N[C@@H](CCCNC(=N)N)C(=O)Nc1ccc([N+](=O)[O-])cc1 [Substrate I, N^α -Bz-Val-Gly-Arg-pNA.HCl] (Bz-Val-Gly-Arg-pNA) | 6850 CU | 7.27 × 10^-5 μmole/min. CTA | 20,9 nanomoles | 36.6 NF | 1688 BAEE | split but little | 1 to 10 CTA/ml | 20250 CTA | 2174 NIH | split very little and unspecifically | –
2 | N=C(N)NCCC[C@H](NC(=O)CNC(=O)[C@@H](NC(=O)OCc1ccccc1)C1CCCCC1)C(=O)Nc1ccc([N+](=O)[O-])cc1 [Substrate X, N^α -Cbo-C.Cyclohexylglycyl-Gly-Arg-pNA.HCl] (Cbz-[Chg]-Gly-Arg-pNA) | – | – | – | – | – | – | – | – | – | – | ≥ 0.01 NF unit per ml

Source: patent US4278762A, “Method for the quantitative determination of plasminogen activators” (Pentapharm AG, priority 1976, dated 1981)
